Assay results published in patent publication US20200147039A1, “COMPOUNDS USEFUL IN INHIBITING HUMAN TREFOIL FACTOR 3” (NATIONAL UNIVERSITY OF SINGAPORE, priority 2017, published 2020).

What was measured:
MDA-MB-361 = experiment: AlamarBlue cell viability assay, MDA-MB-361; assay type: cell-based; conditions: Homo sapiens, Mammary
Excerpt: (§1) (A) Inhibitory concentration 50% (IC50) values for compound 43 in the MC cell lines are tabulated, using an AlamarBlue™ cell viability assay as previously described in Pandey V et al., Breast Cancer Res. 2014; 16(5):429. (B) Measured dose-dependent manner effect of compound 43 on the viability of MC cells (left-side, TFF3-high and right, TFF3-low) using AlamarBlue™ viability assay as previously described (ibid). (C) Apoptotic cell death of mammary carcinoma cell lines measured after treatment with 10 μM compound 43 using flow cytometry analysis at 24 hour as described previously in Keerthy H K et al., PloS one. 2014; 9(9):e107118. Annexin V-FITC staining is indicated on the X-axis and PI staining on the Y-axis. […] Acquisition of Annexin V and PI data were represented as percentage (%) in each quadrant. Note: CM, conditioned media; MCF10A and MCF12A, non-transformed immortalized-mammary epithelial cell line. Points are mean of triplicate experiments; bars, ±SD. Statistical significance was assessed by using an unpaired two-tailed Student's t test (P<0.05 was considered as significant) using GraphPad Prism5. […]
(§2) In table 9 IC50 values of compound 43 compound library in several cancer cell lines are tabulated, using an AlamarBlue® cell viability assay as previously described in Pandey V et al., Breast Cancer Res. 2014; 16(5):429. Statistical analysis was assessed by using GraphPad Prism5. […]

MDA-MB-231 = experiment: AlamarBlue cell viability assay, MDA-MB-231; assay type: cell-based; conditions: Homo sapiens, Mammary
Excerpt: as §1, §2

ECC1 = experiment: AlamarBlue cell viability assay, ECC1; assay type: cell-based; conditions: Homo sapiens, ECC-1, Endometrial
Procedure: (§3) The human immortalized mammary epithelial cell lines, MCF10A, and MCF12A; and immortalized hepatocellular epithelial cell line, LO2 were obtained from the American Type Culture Collection (ATCC, Rockville, Md.) and were cultured as per ATCC propagation instructions. MC cell lines, MCF7, T47D, BT474, BT20, MDA-MB-361, MDA-MB-436, MDA-MB-468, and MDA-MB-231; endometrial carcinoma cell lines, Ishikawa, ECC1, RL95-2 and AN3; hepatocellular carcinoma cell lines, Hep3B, H2P, and H2M; colon carcinoma cell lines, DLD-1, and Caco-2; and prostate carcinoma cell lines, PC3, LNCaP, and DU145 were obtained from the American Type Culture Collection (ATCC, Rockville, Md.). Pancreatic carcinoma cell lines, AsPC-1 and BxPC-3; Lung carcinoma cell lines, HCC-827, NCI-H1975, HCC-4006, PC-14, and NCI-H1299; and Thyroid carcinoma cell lines HTH83, CAL62, T238, and OGK-M were obtained from Prof. H. Phillip Koeffler's laboratory at The Cancer Science Institute of Singapore, National University of Singapore (NUS). Gastric carcinoma cell lines, AGS, MKN-28, MKN-45, and A2-528 were obtained from Prof. […]
as §2

AN3 = experiment: AlamarBlue cell viability assay, AN3; assay type: cell-based; conditions: Homo sapiens, Endometrial
Procedure: as §3, §2

HCC4006 = experiment: AlamarBlue cell viability assay, HCC4006; assay type: cell-based; conditions: Homo sapiens, Lung
Procedure: as §3, §2

H1299 = experiment: AlamarBlue cell viability assay, H1299; assay type: cell-based; conditions: Homo sapiens, NCI-H1299, Lung
Procedure: as §3, §2

PC-14 = experiment: AlamarBlue cell viability assay, PC-14; assay type: cell-based; conditions: Homo sapiens, Lung
Procedure: as §3, §2

H2M = experiment: AlamarBlue cell viability assay, H2M; assay type: cell-based; conditions: Homo sapiens, Hepatocellular
Procedure: as §3, §2

PC3 = experiment: AlamarBlue cell viability assay, PC3; assay type: cell-based; conditions: Homo sapiens, PC-3, Prostate
Procedure: as §3, §2

LNCaP = experiment: AlamarBlue cell viability assay, LNCaP; assay type: cell-based; conditions: Homo sapiens, Prostate
Procedure: as §3, §2

AsPC-1 = experiment: AlamarBlue cell viability assay, AsPC-1; assay type: cell-based; conditions: Homo sapiens, ASPC1, Pancreatic
Procedure: as §3, §2

CAL62 = experiment: AlamarBlue cell viability assay, CAL62; assay type: cell-based; conditions: Homo sapiens, CAL-62, Thyroid
Procedure: as §3, §2

T238 = experiment: AlamarBlue cell viability assay, T238; assay type: cell-based; conditions: Homo sapiens, Thyroid
Procedure: as §3, §2

OGK-M = experiment: AlamarBlue cell viability assay, OGK-M; assay type: cell-based; conditions: Homo sapiens, Thyroid
Procedure: as §3, §2

A2-528 = experiment: AlamarBlue cell viability assay, A2-528; assay type: cell-based; conditions: Homo sapiens, Gastric
Procedure: as §3, §2

BT474 = experiment: qPCR analysis of mRNA levels of genes associated with oncogenic progression, BT474; assay type: cell-based, human; conditions: BT474, 10 μM
Procedure: Total RNA was isolated from cells using TRIzol Plus RNA Purification system as previously described in Pandey V et al., Endocrinology. 2010; 151(3):909-920. qPCR assays were performed as previously described in Pandey V et al., Endocrinology. 2010; 151(3):909-920; and Pandey V et al., Endocrinology. 2008; 149(8):3909-3919. Gene expression analysis was performed as previously described in Pandey V et al., Endocrinology. 2010; 151(3):909-920; and Pandey V et al., Endocrinology. 2008; 149(8):3909-3919.

Structure (SMILES): Cc1cc(-c2ccc(C3C(C#N)=C(N)Oc4c3c(=O)oc3ccccc43)cc2)cnc1F (stereo not shown) [Compound 43, 2-Amino-4-(4-(6-fluoro-5-methylpyridin-3-yl)phenyl)-5-oxo-4H,5H-pyrano[3,2-c]chromene-3-carbonitrile]
- IC50 (MDA-MB-361): 1.61 µM
- IC50 (MDA-MB-231): 408 µM
- IC50 (ECC1): 4.64 µM
- IC50 (AN3): 289 µM
- IC50 (HCC4006): 3.92 µM
- IC50 (H1299): 18.6 µM
- IC50 (PC-14): 24.2 µM
- IC50 (H2M): 7.86 µM
- IC50 (PC3): 0.68 µM
- IC50 (LNCaP): 226 µM
- IC50 (AsPC-1): 4.41 µM
- IC50 (CAL62): 33.1 µM
- IC50 (T238): 185 µM
- IC50 (OGK-M): 411 µM
- IC50 (A2-528): 34.1 µM
- APAF1 mRNA, Fold change relative to vehicle control (BT474): 1.27 fold
- ATM mRNA, Fold change relative to vehicle control (BT474): 0.80 fold
- BAD mRNA, Fold change relative to vehicle control (BT474): 0.04 fold
- BAK1 mRNA, Fold change relative to vehicle control (BT474): 1.92 fold
- BAX mRNA, Fold change relative to vehicle control (BT474): 21.55 fold
- BCL2L1 mRNA, Fold change relative to vehicle control (BT474): 0.05 fold
- BCL2 mRNA, Fold change relative to vehicle control (BT474): 0.02 fold
- BCLAF1 mRNA, Fold change relative to vehicle control (BT474): 1.26 fold
- BRCA1 mRNA, Fold change relative to vehicle control (BT474): 0.47 fold
- CASP7 mRNA, Fold change relative to vehicle control (BT474): 103.76 fold
- CCND1 mRNA, Fold change relative to vehicle control (BT474): 0.04 fold
- CDC25A mRNA, Fold change relative to vehicle control (BT474): 0.15 fold
- CDK2 mRNA, Fold change relative to vehicle control (BT474): 1.05 fold
- CDK4 mRNA, Fold change relative to vehicle control (BT474): 0.66 fold
- CDKN1A mRNA, Fold change relative to vehicle control (BT474): 27.15 fold
- CDKN1B mRNA, Fold change relative to vehicle control (BT474): 0.14 fold
- CDKN2A mRNA, Fold change relative to vehicle control (BT474): 1.43 fold
- CFLAR mRNA, Fold change relative to vehicle control (BT474): 9.08 fold
- CHEK2 mRNA, Fold change relative to vehicle control (BT474): 0.85 fold
- Cyclin E1 mRNA, Fold change relative to vehicle control (BT474): 0.08 fold
- E2F1 mRNA, Fold change relative to vehicle control (BT474): 0.51 fold
- GZMA mRNA, Fold change relative to vehicle control (BT474): 3.66 fold
- HTATIP2 mRNA, Fold change relative to vehicle control (BT474): 6.64 fold
- MDM2 mRNA, Fold change relative to vehicle control (BT474): 0.99 fold
- RB1 mRNA, Fold change relative to vehicle control (BT474): 0.86 fold
- S100A4 mRNA, Fold change relative to vehicle control (BT474): 4.80 fold
- TERT mRNA, Fold change relative to vehicle control (BT474): 0.08 fold
- TNFRSF1A mRNA, Fold change relative to vehicle control (BT474): 35.64 fold
- TNFRSF10B mRNA, Fold change relative to vehicle control (BT474): 9.22 fold
- TNFRSF25 mRNA, Fold change relative to vehicle control (BT474): 7.11 fold
- TP53 mRNA, Fold change relative to vehicle control (BT474): 459.09 fold
